In patent EP4796557A1, “POLYPEPTIDE, BIOACTIVE CONJUGATE, AND PREPARATION METHOD THEREFOR AND USE THEREOF” (priority 2023, dated 2025):
Numbered stars: 1 amine (or outer) side, 2 acyl side, 3 side chain; on linkers, the order of the positions; unused ones are H or OH. Square brackets hold non-standard residues; d marks the D form. Peptide text beside a SMILES is read from it. * marks the point of attachment. Exatecan = CC[C@@]1(O)C(=O)OCc2c1cc1n(c2=O)Cc2c-1nc1cc(F)c(C)c3c1c2[C@@H](N*)CC3; Hexanoyl(6-maleimido) = O=C1C=CC(=O)N1CCCCCC(=O)*; PABC = O=C(OCc1ccc(N[*:1])cc1)[*:2]; Cit = NC(=O)NCCC[C@H](N)C(=O)O; X1 = CN(C)CC(N[*:1])C(=O)[*:2]

Columns and labels:
[1] = background statement; cited from earlier work
MMP9 [2] = biological target: T1, MMP9 (Homo sapiens, UniProt P14780); test: Enzymolysis assay of the linker-payload by MMP9 (LC-MS); assay type: biochemical; conditions: linker-payload 100 µmol, activated MMP9 0.2 µg/mL, 37°C, 24 h
T1 sequence (P14780 107-707 limits assumed, species assumed): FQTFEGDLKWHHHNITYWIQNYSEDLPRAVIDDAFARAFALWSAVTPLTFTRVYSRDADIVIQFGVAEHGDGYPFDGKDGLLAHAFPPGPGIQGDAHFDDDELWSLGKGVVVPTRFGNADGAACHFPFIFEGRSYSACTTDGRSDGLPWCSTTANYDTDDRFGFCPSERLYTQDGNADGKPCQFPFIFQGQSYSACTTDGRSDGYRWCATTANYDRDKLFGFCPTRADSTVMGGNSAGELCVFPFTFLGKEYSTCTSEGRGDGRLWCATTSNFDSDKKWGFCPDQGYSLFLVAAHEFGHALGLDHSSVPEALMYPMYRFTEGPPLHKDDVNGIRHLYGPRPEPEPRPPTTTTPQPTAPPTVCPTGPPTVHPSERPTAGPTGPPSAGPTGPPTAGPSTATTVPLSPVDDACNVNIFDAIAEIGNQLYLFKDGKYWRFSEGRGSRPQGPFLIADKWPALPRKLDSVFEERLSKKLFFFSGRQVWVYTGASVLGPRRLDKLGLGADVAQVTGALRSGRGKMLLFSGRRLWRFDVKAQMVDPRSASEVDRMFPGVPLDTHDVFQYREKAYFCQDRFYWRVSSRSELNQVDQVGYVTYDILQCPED
Experimental: (§1) MMP9 having a final concentration of 200 µg/mL was mixed with 4 mM APMA at a ratio of 1:1 and placed in a 37°C water bath and incubated for 24 h to activate the MMP9 enzyme solution. Subsequently, the linker-payload having a final concentration of 100 µmol was incubated with the activated MMP9 solution having a final concentration of 0.2 µg/mL in a 37°C water bath for 24 h. After the reaction was complete, LC-MS analysis was performed.

MMP2 [3] = biological target: T2, MMP2 (Homo sapiens, UniProt P08253); test: Enzymolysis assay of the linker-payload by MMP2 (LC-MS); assay type: biochemical; conditions: linker-payload 100 µmol, activated MMP2 1 µg/mL, 37°C, 24 h
T2 sequence (P08253 110-660): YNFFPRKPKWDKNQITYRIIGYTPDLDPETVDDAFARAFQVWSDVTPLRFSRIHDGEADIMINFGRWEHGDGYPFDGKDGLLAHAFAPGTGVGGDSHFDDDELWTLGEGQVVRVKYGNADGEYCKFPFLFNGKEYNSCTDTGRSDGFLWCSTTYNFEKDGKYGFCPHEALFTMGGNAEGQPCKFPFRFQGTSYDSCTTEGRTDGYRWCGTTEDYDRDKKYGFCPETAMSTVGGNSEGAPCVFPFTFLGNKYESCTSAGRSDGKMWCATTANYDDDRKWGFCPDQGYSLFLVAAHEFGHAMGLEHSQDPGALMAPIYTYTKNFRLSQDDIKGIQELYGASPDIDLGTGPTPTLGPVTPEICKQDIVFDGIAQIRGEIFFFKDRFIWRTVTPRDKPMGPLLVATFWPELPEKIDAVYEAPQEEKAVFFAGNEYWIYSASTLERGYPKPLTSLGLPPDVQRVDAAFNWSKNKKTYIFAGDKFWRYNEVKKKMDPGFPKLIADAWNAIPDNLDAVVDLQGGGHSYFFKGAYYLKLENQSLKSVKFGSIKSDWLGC
Experimental: as §1, with “MMP2” for “MMP9”, “1” for “0.2”

MMP2 [4] = biological target: T2, MMP2; test: Enzymolysis assay of polypeptides by MMP2 (RP-HPLC); assay type: biochemical; conditions: test polypeptide 100 µmol, activated MMP2, 37°C, 4 h
Experimental: (§2) First, MMP2 or MMP9 enzyme solution having a final concentration of 200 µg/mL was mixed with 4 mM APMA at a ratio of 1:1, placed in a 37°C water bath and incubated for 24 h to activate the MMP2 or MMP9 enzyme solution. Subsequently, the test polypeptide having a final concentration of 100 µmol was incubated with the activated MMP2 or MMP9 enzyme solution in a 37°C water bath for 4 h. After the reaction was complete, an equal volume of acetonitrile solution was added thereto, followed by RP-HPLC analysis.
(§3) The enzymolysis efficiency of the polypeptide was calculated based on the peak areas of the target peak before and after enzymolysis. The formula is as follows: Enzymolysis efficiency = […] [formula]

MMP9 [5] = biological target: T1, MMP9; test: Enzymolysis assay of polypeptides by MMP9 (RP-HPLC); assay type: biochemical; conditions: polypeptide 100 µmol with activated MMP9, 37°C, 4 h, RP-HPLC peak areas
Experimental: as §2, §3

Molecule | half-life in plasma [1] | MMP9 enzymolysis efficiency (%) (MMP9 [2]) | MMP2 enzymolysis efficiency (%) (MMP2 [3]) | Enzymolysis efficiency (%) (MMP2 [4]) | Enzymolysis efficiency (%) (MMP9 [5])
Trodelvy | less than 24 hours | – | – | – | –
CC[C@@]1(O)C(=O)OCc2c1cc1n(c2=O)Cc2c-1nc1cc(F)c(C)c3c1c2[C@@H](NC(=O)OCc1ccc(NC(=O)[C@H](CCCNC(N)=O)NC(=O)[C@@H](NC(=O)[C@H](CC(C)C)NC(=O)[C@H](CC(N)=O)NC(=O)[C@H](CCCNC(N)=O)NC(=O)[C@@H]2CCCN2C(=O)CCCCCN2C(=O)C=CC2=O)C(C)C)cc1)CC3 [Compound L064-P005, MC-PCitNLVCit-PAB-DX8951] ({Hexanoyl(6-maleimido)}-P[Cit]NLV[Cit][PABC]-Exatecan) | – | 52.70 | 42.89 | – | –
CC[C@@]1(O)C(=O)OCc2c1cc1n(c2=O)Cc2c-1nc1cc(F)c(C)c3c1c2[C@@H](NC(=O)OCc1ccc(NC(=O)[C@H](CCCNC(N)=O)NC(=O)[C@@H](NC(=O)[C@H](CC(C)C)NC(=O)[C@H](CO)NC(=O)[C@H](C)NC(=O)[C@@H]2CCCN2C(=O)CCCCCN2C(=O)C=CC2=O)C(C)C)cc1)CC3 [Compound L065-P005, MC-PASLVCit-PAB-DX8951] ({Hexanoyl(6-maleimido)}-PASLV[Cit][PABC]-Exatecan) | – | 27.13 | 32.73 | – | –
CC(=O)N[C@@H](CO)C(=O)N1CCC[C@H]1C(=O)N[C@@H](CCCNC(N)=O)C(=O)NCC(=O)N[C@@H](CC(C)C)C(=O)N[C@H](C(=O)N[C@@H](CCCNC(N)=O)C(N)=O)C(C)C [Compound 2-P22] (Ac-SP[Cit]GLV[Cit]-NH2) | – | – | – | 55.25 | 73.74
CC(=O)NCC(=O)N1CCC[C@H]1C(=O)N[C@@H](C)C(=O)N[C@@H](C)C(=O)N[C@@H](CC(C)C)C(=O)N[C@H](C(=O)N[C@@H](CCCNC(N)=O)C(N)=O)C(C)C [Compound 1-P12] (Ac-GPAALV[Cit]-NH2) | – | – | – | 38.94 | 20.93
CC(=O)NCC(=O)N1CCC[C@H]1C(=O)N[C@@H](C)C(=O)NCC(=O)N[C@@H](CC(C)C)C(=O)N[C@H](C(=O)N[C@@H](CCCNC(N)=O)C(N)=O)C(C)C [Compound 1-P7] (Ac-GPAGLV[Cit]-NH2) | – | – | – | 90.29 | 25.55
Ac-GPAALGGFG-NH2 [Compound 1-P24] | – | – | – | 96.89 | 37.13
CC(=O)N1CCC[C@H]1C(=O)N[C@@H](CCCNC(=N)N)C(=O)N[C@@H](CO)C(=O)N[C@@H](CC(C)C)C(=O)N[C@H](C(=O)N[C@@H](CCCNC(N)=O)C(N)=O)C(C)C [Compound 2-P2] (Ac-PRSLV[Cit]-NH2) | – | – | – | 53.20 | 79.34
Ac-GPRGLGGFG-NH2 [Compound 1-P23] | – | – | – | 89.54 | 84.66
Ac-GPQGLGGFG-NH2 [Compound 1-P20] | – | – | – | 51.36 | 32.62
Ac-VPLSLGGFG-NH2 [Compound 1-P15] | – | – | – | 40.90 | 33.25
CC(=O)NCC(=O)N1CCC[C@H]1C(=O)N[C@@H](CCC(N)=O)C(=O)NCC(=O)N[C@@H](CC(C)C)C(=O)N[C@H](C(=O)N[C@@H](CCCNC(N)=O)C(N)=O)C(C)C [Compound 1-P8] (Ac-GPQGLV[Cit]-NH2) | – | – | – | 54.71 | 29.30
CC(=O)N1CCC[C@H]1C(=O)N[C@@H](CCCNC(=N)N)C(=O)NCC(=O)N[C@@H](CC(C)C)C(=O)N[C@H](C(=O)N[C@@H](CCCNC(N)=O)C(N)=O)C(C)C [Compound 2-P1, PRGLVCit] (Ac-PRGLV[Cit]-NH2) | – | – | – | 80.31 | 93.67
CC(=O)NCC(=O)N1CCC[C@H]1C(=O)N[C@@H](CC(C)C)C(=O)NCC(=O)N[C@@H](CC(C)C)C(=O)N[C@H](C(=O)N[C@@H](CCCNC(N)=O)C(N)=O)C(C)C [Compound 1-P9] (Ac-GPLGLV[Cit]-NH2) | – | – | – | 81.75 | 68.34
CC(=O)N[C@@H](Cc1c[nH]cn1)C(=O)N1CCC[C@H]1C(=O)N[C@@H](CCCNC(=N)N)C(=O)N1CCC[C@H]1C(=O)N[C@@H](CC(C)C)C(=O)N[C@H](C(=O)N[C@@H](CCCNC(N)=O)C(N)=O)C(C)C [Compound 2-P14] (Ac-HPRPLV[Cit]-NH2) | – | – | – | 54.65 | 58.33
CC(=O)N[C@@H](CO)C(=O)N1CCC[C@H]1C(=O)N[C@@H](CCCNC(N)=O)C(=O)N1CCC[C@H]1C(=O)N[C@@H](CC(C)C)C(=O)N[C@H](C(=O)N[C@@H](CCCNC(N)=O)C(N)=O)C(C)C [Compound 2-P24] (Ac-SP[Cit]PLV[Cit]-NH2) | – | – | – | 45.97 | 38.72
CC(=O)N[C@@H](CO)C(=O)N1CCC[C@H]1C(=O)N[C@@H](CCCNC(=N)N)C(=O)N[C@@H](CO)C(=O)N[C@@H](CC(C)C)C(=O)N[C@H](C(=O)N[C@@H](CCCNC(N)=O)C(N)=O)C(C)C [Compound 2-P19] (Ac-SPRSLV[Cit]-NH2) | – | – | – | 55.76 | 79.26
CC(=O)NCC(=O)N1CCC[C@H]1C(=O)N[C@@H](CCCNC(N)=O)C(=O)N1CCC[C@H]1C(=O)N[C@@H](CC(C)C)C(=O)N[C@H](C(=O)N[C@@H](CCCNC(N)=O)C(N)=O)C(C)C [Compound 2-P11] (Ac-GP[Cit]PLV[Cit]-NH2) | – | – | – | 40.95 | 45.82
CC(=O)NCC(=O)N1CCC[C@H]1C(=O)N[C@@H](CO)C(=O)NCC(=O)N[C@@H](CC(C)C)C(=O)N[C@H](C(=O)N[C@@H](CCCNC(N)=O)C(N)=O)C(C)C [Compound 1-P10] (Ac-GPSGLV[Cit]-NH2) | – | – | – | 75.95 | 27.93
Ac-GPLGLGGFG-NH2 [Compound 1-P21] | – | – | – | 90.43 | 75.60
CC(=O)NCC(=O)N1CCC[C@H]1C(=O)N[C@@H](CCCNC(=N)N)C(=O)N[C@@H](CO)C(=O)N[C@@H](CC(C)C)C(=O)N[C@H](C(=O)N[C@@H](CCCNC(N)=O)C(N)=O)C(C)C [Compound 2-P7] (Ac-GPRSLV[Cit]-NH2) | – | – | – | 62.64 | 77.95
CC(=O)N[C@@H](Cc1c[nH]cn1)C(=O)N1CCC[C@H]1C(=O)N[C@@H](CCCNC(=N)N)C(=O)N[C@@H](CC(N)=O)C(=O)N[C@@H](CC(C)C)C(=O)N[C@H](C(=O)N[C@@H](CCCNC(N)=O)C(N)=O)C(C)C [Compound 2-P15] (Ac-HPRNLV[Cit]-NH2) | – | – | – | 63.27 | 94.69
CC(=O)N[C@H](C(=O)N1CCC[C@H]1C(=O)N[C@@H](CC(C)C)C(=O)N[C@@H](CO)C(=O)N[C@@H](CC(C)C)C(=O)N[C@H](C(=O)N[C@@H](CCCNC(N)=O)C(N)=O)C(C)C)C(C)C [Compound 1-P3] (Ac-VPLSLV[Cit]-NH2) | – | – | – | 49.85 | 51.44
CC(=O)NCC(=O)N1CCC[C@H]1C(=O)N[C@@H](CCCNC(=N)N)C(=O)NCC(=O)NC(CN(C)C)C(=O)N[C@H](C(=O)N[C@@H](CCCNC(N)=O)C(N)=O)C(C)C (some centres unmarked) [Compound 2-P27] (Ac-GPRG[X1]V[Cit]-NH2) | – | – | – | 9.00 | 10.53
